Laboratory results published in PubChem BioAssay AID330 (DTP/NCI, 2004).
Inconclusive results and toxic doses are left out. Rule for the calls: active = survival T/C of 150% or more; inactive = T/C below 125% in these data. Peptide text beside a SMILES is read from it. * marks the point of attachment. Cbz = O=C(OCc1ccccc1)*; Bn = c1ccc(C*)cc1; NHNH2 = NN*

Test system: P388 leukemia ip, CD2F1 mice, survival T/C
Assay: NCI In Vivo Anticancer Drug Screen. Data for tumor model P388 Leukemia (intraperitoneal) in CD2F1 (CDF1) mice
Settings: endpoint: median survival time, higher = longer survival
In short: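 Mice carrying the transplanted tumor received test compound or vehicle. Survival was recorded in each group, and the value is the treated-group measurement divided by that of the vehicle-treated control group.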

[1] = dose: 25.0 mg/kg/injection, schedule: Q01DX009 (ip), vehicle: saline
[2] = dose: 50.0 mg/kg/injection, schedule: Q01DX009 (ip), vehicle: saline
[3] = dose: 100.0 mg/kg/injection, schedule: Q01DX009 (ip), vehicle: saline
[4] = dose: 200.0 mg/kg/injection, schedule: Q01DX009 (ip), vehicle: saline
[5] = dose: 25.0 mg/kg/injection, schedule: Q01DX009 (ip), vehicle: Klucel (hydroxypropylcellulose) (HPC)
[6] = dose: 50.0 mg/kg/injection, schedule: Q01DX009 (ip), vehicle: Klucel (hydroxypropylcellulose) (HPC)
[7] = dose: 100.0 mg/kg/injection, schedule: Q01DX009 (ip), vehicle: Klucel (hydroxypropylcellulose) (HPC)
[8] = dose: 200.0 mg/kg/injection, schedule: Q01DX009 (ip), vehicle: Klucel (hydroxypropylcellulose) (HPC)
[9] = dose: 60.0 mg/kg/injection, schedule: Q01DX005 (ip), vehicle: saline with Tween-80
[10] = dose: 120.0 mg/kg/injection, schedule: Q01DX005 (ip), vehicle: saline with Tween-80
[11] = dose: 50.0 mg/kg/injection, schedule: Q04DX003 (ip), vehicle: saline with Tween-80
[12] = dose: 100.0 mg/kg/injection, schedule: Q04DX003 (ip), vehicle: saline with Tween-80
[13] = dose: 200.0 mg/kg/injection, schedule: Q04DX003 (ip), vehicle: saline with Tween-80
[14] = dose: 240.0 mg/kg/injection, schedule: Q01DX005 (ip), vehicle: saline with Tween-80
[15] = dose: 60.0 mg/kg/injection, schedule: Q01DX005 (ip), vehicle: Klucel (hydroxypropylcellulose) (HPC)
[16] = dose: 120.0 mg/kg/injection, schedule: Q01DX005 (ip), vehicle: Klucel (hydroxypropylcellulose) (HPC)
[17] = dose: 240.0 mg/kg/injection, schedule: Q01DX005 (ip), vehicle: Klucel (hydroxypropylcellulose) (HPC)
[18] = dose: 50.0 mg/kg/injection, schedule: Q01DX009 (ip), vehicle: saline with Tween-80
[19] = dose: 50.0 mg/kg/injection, schedule: Q01DX005 (ip), vehicle: saline with Tween-80
[20] = dose: 100.0 mg/kg/injection, schedule: Q01DX005 (ip), vehicle: saline with Tween-80
[21] = dose: 200.0 mg/kg/injection, schedule: Q01DX005 (ip), vehicle: saline with Tween-80
[22] = dose: 100.0 mg/kg/injection, schedule: Q01DX001 (ip), vehicle: Klucel (hydroxypropylcellulose) (HPC)
[23] = dose: 200.0 mg/kg/injection, schedule: Q01DX001 (ip), vehicle: Klucel (hydroxypropylcellulose) (HPC)
[24] = dose: 25.0 mg/kg/injection, schedule: Q01DX005 (ip), vehicle: Klucel (hydroxypropylcellulose) (HPC)
[25] = dose: 50.0 mg/kg/injection, schedule: Q01DX005 (ip), vehicle: Klucel (hydroxypropylcellulose) (HPC)
[26] = dose: 100.0 mg/kg/injection, schedule: Q01DX005 (ip), vehicle: Klucel (hydroxypropylcellulose) (HPC)
[27] = dose: 200.0 mg/kg/injection, schedule: Q01DX005 (ip), vehicle: Klucel (hydroxypropylcellulose) (HPC)

Measured: T/C

O=C(O)c1cc(O)ccc1O
inactive: [1] 104 % of control | [2] 90 % of control | [3] 97 % of control | [4] 94 % of control

O=[N+]([O-])c1ccc(/C=N/N2CCNC2=S)o1
inactive: [5] 100 % of control | [6] 101 % of control | [7] 100 % of control | [8] 100 % of control

CCOC(=O)CNC(=O)c1cc2c(cn1)[nH]c1ccccc12
inactive: [9] 93 % of control | [10] 86 % of control

CCOc1nc(N)nc(C)c1N=Nc1ccc(Cl)cc1
inactive: dose: 60.0 mg/kg/injection, schedule: Q01DX005 (ip), vehicle: Klucel + Tween-80 100 % of control | dose: 120.0 mg/kg/injection, schedule: Q01DX005 (ip), vehicle: Klucel + Tween-80 101 % of control

C=CCNc1ccc(OC)cc1
inactive: [11] 100 % of control | [12] 100 % of control | [13] 100 % of control

Cc1cc2nc(N)sc2cc1C
inactive: dose: 12.5 mg/kg/injection, schedule: Q01DX009 (ip), vehicle: saline 98 % of control | [1] 100 % of control | [2] 102 % of control | [3] 102 % of control

O=[N+]([O-])[O-].OCCNCCNCC[OH2+].OCCNCCNCC[OH2+].[Co+2]
inactive: [2] 95 % of control | [3] 104 % of control | [4] 103 % of control

COc1ccc2c(c1OC)C(N1CCc3cc4c(cc3C1=O)OCO4)OC2=O (stereo unspecified)
inactive: dose: 12.5 mg/kg/injection, schedule: Q01DX001 (ip), vehicle: saline + alcohol 89 % of control | dose: 25.0 mg/kg/injection, schedule: Q01DX001 (ip), vehicle: saline + alcohol 87 % of control | dose: 50.0 mg/kg/injection, schedule: Q01DX001 (ip), vehicle: saline + alcohol 87 % of control

CCC1(C#N)N=C(c2ccccc2)c2ccccc2N1C(=O)OC (stereo unspecified)
inactive: [9] 96 % of control | [10] 98 % of control | [14] 98 % of control

Cc1ccc(Cl)cc1NC(=O)Nc1nccs1
inactive: [5] 93 % of control | [6] 92 % of control | [7] 109 % of control

COc1ccccc1N1CCN(C(=O)CCCl)CC1
inactive: [15] 109 % of control | [16] 103 % of control | [17] 105 % of control

O=[N+]([O-])/C=C\c1cc2c3c(c1)CCCN3CCC2
inactive: dose: 12.5 mg/kg/injection, schedule: Q01DX009 (ip), vehicle: saline with Tween-80 100 % of control | dose: 25.0 mg/kg/injection, schedule: Q01DX009 (ip), vehicle: saline with Tween-80 109 % of control | [18] 109 % of control

O=C(NCCCNC(=O)C12CC3CC(CC(C3)C1)C2)C12CC3CC(CC(C3)C1)C2
inactive: [19] 98 % of control | [20] 92 % of control | [21] 100 % of control

NNC(=O)C(Cc1ccc(O)cc1)NC(=O)C(CSCc1ccccc1)NC(=O)OCc1ccccc1 (stereo unspecified) (Cbz-Cys(Bn)-Tyr-NHNH2; configuration not given here)
inactive: [6] 93 % of control | [7] 91 % of control | [8] 89 % of control

OCC1=CCN2CC[C@@H](O)[C@@H]12
inactive: dose: 50.0 mg/kg/injection, schedule: Q01DX005 (ip), vehicle: saline 93 % of control | dose: 100.0 mg/kg/injection, schedule: Q01DX005 (ip), vehicle: saline 107 % of control | dose: 200.0 mg/kg/injection, schedule: Q01DX005 (ip), vehicle: saline 93 % of control

C[S+](C)CCCNC(=O)c1csc(-c2csc(-c3cscn3)n2)n1
inactive: dose: 6.25 mg/kg/injection, schedule: Q01DX005 (ip), vehicle: saline 104 % of control | dose: 12.5 mg/kg/injection, schedule: Q01DX005 (ip), vehicle: saline 96 % of control

CCOC(=O)c1c(C2OC(CO)C(O)C2O)cn(C)c1-c1ccccc1 (stereo unspecified)
inactive: dose: 50.0 mg/kg/injection, schedule: Q01DX001 (ip), vehicle: Klucel (hydroxypropylcellulose) (HPC) 103 % of control | [22] 98 % of control | [23] 98 % of control

Cc1cc(=O)n2c(n1)sc1ccc3ccccc3c12
inactive: [9] 100 % of control | [10] 100 % of control | [14] 97 % of control

Nc1nc(-c2cc(-c3ccco3)nc(N)n2)cc(-c2ccco2)n1
inactive: dose: 60.0 mg/kg/injection, schedule: Q01DX005 (ip), vehicle: saline 103 % of control | dose: 120.0 mg/kg/injection, schedule: Q01DX005 (ip), vehicle: saline 103 % of control | dose: 240.0 mg/kg/injection, schedule: Q01DX005 (ip), vehicle: saline 101 % of control

COc1c2cc(O)cc1CCCC1=CC(=O)C=C(CCC2)C1=O
inactive: [22] 99 % of control | [23] 99 % of control | dose: 400.0 mg/kg/injection, schedule: Q01DX001 (ip), vehicle: Klucel (hydroxypropylcellulose) (HPC) 108 % of control

CC1(C)CCCC2(C)C3=C(CCC12)C(=O)OC3 (stereo unspecified)
inactive: [24] 101 % of control | [25] 102 % of control | [26] 100 % of control | [27] 100 % of control

CCn1c2c(c3ccccc3c1=O)C(=O)c1ccccc1-2
inactive: [19] 103 % of control | [20] 103 % of control | [21] 94 % of control

CCOC(=O)NC(NC(=O)OCC)c1cccnc1
inactive: dose: 200.0 mg/kg/injection, schedule: Q04DX003 (ip), vehicle: saline 94 % of control | dose: 400.0 mg/kg/injection, schedule: Q04DX003 (ip), vehicle: saline 101 % of control

[C-]#[N+]C(C)Cc1ccccc1 (stereo unspecified)
inactive: dose: 1.56 mg/kg/injection, schedule: Q04DX003 (ip), vehicle: saline 101 % of control | dose: 3.13 mg/kg/injection, schedule: Q04DX003 (ip), vehicle: saline 103 % of control | dose: 6.25 mg/kg/injection, schedule: Q04DX003 (ip), vehicle: saline 103 % of control | dose: 12.5 mg/kg/injection, schedule: Q04DX003 (ip), vehicle: saline 105 % of control | dose: 25.0 mg/kg/injection, schedule: Q04DX003 (ip), vehicle: saline 104 % of control

COC1OC2COc3ccccc3OC2C(NC#N)C1OC (stereo unspecified)
inactive: [15] 112 % of control | [16] 108 % of control | [17] 107 % of control

CS(=O)(=O)OCC(=O)NCCNC(=O)COS(C)(=O)=O
inactive: dose: 12.5 mg/kg/injection, schedule: Q04DX003 (ip), vehicle: saline with Tween-80 100 % of control | dose: 25.0 mg/kg/injection, schedule: Q04DX003 (ip), vehicle: saline with Tween-80 108 % of control | [11] 120 % of control

S=C(NCCc1ccccc1)N/N=C/c1ccc(Cl)cc1
inactive: [25] 104 % of control | [26] 100 % of control

COc1ccc(NC(=O)C2C(=O)C(=O)N(c3ccc(OC)cc3OC)C2=O)c(OC)c1 (stereo unspecified)
inactive: [6] 98 % of control | [7] 100 % of control | [8] 98 % of control

CCCCCC(=O)/C=C/C1=C(N2CCCC2)CN(C(=O)OCC)C1
inactive: [15] 86 % of control | [16] 89 % of control | [17] 91 % of control

CC(=O)N1C(=O)c2ccccc2NC1(C)c1ccncc1 (stereo unspecified)
inactive: [24] 100 % of control | [25] 101 % of control | [26] 107 % of control | [27] 106 % of control

Cc1nc2ccccc2c(C(=O)NO)[n+]1[O-]
inactive: [18] 104 % of control | dose: 100.0 mg/kg/injection, schedule: Q01DX009 (ip), vehicle: saline with Tween-80 100 % of control | dose: 200.0 mg/kg/injection, schedule: Q01DX009 (ip), vehicle: saline with Tween-80 103 % of control

O=C(CC(O)(C(F)(F)F)C(F)(F)F)c1ccc(Cl)cc1
inactive: [11] 104 % of control | [12] 100 % of control | [13] 104 % of control

OCC(O)C(O)C(O)Cc1ccc(O)cc1O (stereo unspecified)
inactive: [2] 98 % of control | [3] 106 % of control | [4] 104 % of control
